Measurements from paper PMC11187126, “Structure and dynamics of the pyroglutamylated RF-amide peptide QRFP receptor GPR103” (Nature Communications, 2024).
Like-named read-outs stand apart in the source and are kept apart here. No end group written: not given here.

Target: T1, GPR103 Y194^ECL2A (Homo sapiens, UniProt Q96P65, Y194A)
T1 construct: we used human full-length QRFPR-encoding plasmids; expressed in transfected cells; host or cells: HEK293 cells, pCAGGS vector
T1 sequence (Q96P65 1-431 Y194A): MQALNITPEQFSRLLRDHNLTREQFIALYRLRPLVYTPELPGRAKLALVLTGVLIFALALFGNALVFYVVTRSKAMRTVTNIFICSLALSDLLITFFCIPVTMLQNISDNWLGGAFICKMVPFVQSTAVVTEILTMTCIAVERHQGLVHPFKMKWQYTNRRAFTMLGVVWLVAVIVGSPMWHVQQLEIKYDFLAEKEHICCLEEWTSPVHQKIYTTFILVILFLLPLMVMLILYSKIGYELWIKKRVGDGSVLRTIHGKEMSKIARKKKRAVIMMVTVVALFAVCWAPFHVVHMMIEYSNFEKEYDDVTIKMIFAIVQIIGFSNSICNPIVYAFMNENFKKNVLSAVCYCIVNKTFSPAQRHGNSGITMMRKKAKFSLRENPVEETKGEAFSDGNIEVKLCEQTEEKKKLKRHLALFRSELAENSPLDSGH
Assay: TGFα shedding assay; Exp. level WT (1:10)
Type: cell-based
Method: For the TGFα shedding assay and the flow cytometry analysis, we used human full-length QRFPR-encoding plasmids. Specifically, GPR103 was N-terminally modified with an HA signal sequence followed by a FLAG epitope and then a flexible linker ([…]; the FLAG epitope is underlined) and inserted into the pCAGGS vector. Plasmid encoding GPR103 mutants were generated using Quickchange Site-Directed Mutagensis kit (Agilent).
The TGFα shedding assay was performed as described previously with minor modifications. Plasmid transfection was performed in a 6-well plate with a mixture of 500 ng (per well in a 6-well plate) AP-TGFα-encoding plasmid and 200 ng GPR103-encoding plasmid. After 1-day culture, the transfected cells were harvested by trypsinization, pelleted by centrifugation at 190 × g for 5 min, and washed once with 5 mM HEPES (pH 7.4)-containing Hank’s Balanced Salt Solution (HBSS). After centrifugation, the cells were resuspended in 8 mL of the HEPES-containing HBSS. The cell suspension was seeded in a 96-well culture plate (cell plate) at a volume of 90 μL (per well hereafter) and incubated in a 37 °C incubator with 5% CO2 for 30 min. […] After spinning the cell plates at 190 × g for 2 min, 80 μL of conditioned media was transferred to an empty 96-well plate (conditioned media (CM) plate). Then, 80 μL of AP reaction solution (10 mM p-nitrophenylphosphate (p-NPP), 120 mM Tris-HCl (pH 9.5), 40 mM NaCl, and 10 mM MgCl2) was dispensed into the cell plates and the CM plates. Absorbance at 405 nm of the plates was measured using a microplate reader (SpectraMax 340 PC384, Molecular Devices) before and after 1-h incubation at room temperature. Ligand-induced AP-TGFα release was calculated by subtracting spontaneous AP-TGFα release signal from ligand-induced AP-TGFα release signal. The AP-TGFα release signals were fitted to a four-parameter sigmoidal concentration–response curve, using the Prism 10 software (GraphPad Prism). For each replicate experiment, the pEC50 parameter (negative logarithmic values of EC50 values) of the individual GPR103 mutants were normalized to that of the wild-type GPR103 performed in parallel, and resulting ∆pEC50 values were used to denote ligand response activity of the mutants. […]
Exp. le vel: WT (1:5 0)Exp. le vel: WT (1:5 0)Exp. le vel: WT (1:5 0)Exp. le vel: WT (1:2 0)Exp. le vel: WT (1:2 0)Exp. le vel: WT (1:1 0) […]
L1 4N - t e r mA F2 5N - t e r mA I 2 6N - t e r mA Y 2 9N - t e r mA C 9 82 .5 7A T10 22 .6 1A Exp . l eve l: WT (1 :5)Exp . l evel : >WT (1 :1)Exp. le vel: WT (1:2 0)Exp. le vel: WT (1:2 0)Exp. le vel: WT (1:5 0)Exp . l eve l: WT (1 :1) […]
Exp. le vel: WT (1:1 0)Exp. le vel: WT (1:2 0) C 1 1 83 .2 5AExp. le vel: WT (1:5 0)Exp. le vel: WT (1:5 0)Exp. le vel: WT (1:2 0)Exp . l eve l: WT (1 :5) […]
Exp. le vel: WT (1:5 0)Exp. le vel: WT (1:1 0)Exp. le vel: WT (1:5 0) E203ECL2AExp . l evel : >WT (1 :1)Exp. le vel: WT (1:5 0)Exp. le vel: WT (1:5 0) […]
Exp . l eve l: WT (1 :1) F28Exp. le vel: WT (1:5 0) C 2 8 56 .4 7AExp. le vel: WT (1:2 0) WExp. le vel: WT (1:2 0) F28Exp. le vel: WT (1:5 0)Exp . l evel : >WT (1 :1) […]
Exp. le vel: WT (1:5 0)Exp. le vel: WT (1:5 0) C 3 2 77 .4 8AExp . l eve l: WT (1 :5)Exp . l evel : >WT (1 :1)Exp . l evel : >WT (1 :1) […]
Suppl eme nt ary Figure 1 | Mutational analysis of GPR103. […]
mutants. Data are presented as mean values ± SEM, normally n=3-5; dots), each performed in triplicate. b-d Cell-surface expression (b) and QRFP26-in-duced activation of GPR103 (c, d) were analyzed by the flow cytometry and the TGFα shedding assay, respectively. From the concentration–response curves (a), Emax (c) and ΔpEC50 (d) values relative to the wild type were calculated. Colors in the mutant bars indicate an expression level matching to that of titrated wild type. Statistical analyses were performed using the ordinary one-way ANOVA followed by Dunnett tests with the expression-matched […]

Substance: TSGPLGNLAEELNGYSRKKGGFSFRF-NH2 [QRFP26]
- Emax (Exp. #1): 91.33 % WT
- Emax (Exp. #2): 94.38 % WT
- Emax (Exp. #3): 115.19 % WT
- Emax (mean, read-out: Emax): 100%
- EC50 (n = 3): 93.3 nM
- Emax (n = 3, read-out: Emax): 102 ± 6.1%
